Among the data in the METLIN SMRT retention time set (Domingo-Almenara et al. 2019) are RP-LC retention time values, retold here.

The structures appear in SMILES notation.

The series can be described thus: gradient 5% acetonitrile 3 min, to 50% in 2 min, to 85% in 15 min, held 3 min, 100 µL/min. The following applies: column: Zorbax Extend-C18 2.1 x 50 mm; eluents: water / acetonitrile, 0.1% formic acid. The essentials:
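Data were gathered over 3 months by HPLC coupled to a quadrupole time-of-flight mass spectrometer, operated in positive and negative ionization mode. Mixtures of ~100 pure standards ran on a Zorbax Extend-C18 column (2.1 × 50 mm, 1.8 μm) at 100 μL/min, with water and acetonitrile each containing 0.1% formic acid and dead and dwell volumes of 40 μL and 900 μL. Retention time was read from adduct peaks picked by computer and checked manually.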
`CCC(=O)Nc1cc2c(cc1Sc1ccc(OC)cc1)n(C)c(=O)n2C` returned an RP-LC retention time of 974 s.

For `Cc1ccc(NC(=O)Cn2ccc3sccc3c2=O)c(Cl)c1`, the RP-LC retention time is 802 s.

Take `CCc1ccc(N2C(=O)C3N=NN(Cc4nc(-c5cccc(Br)c5)no4)C3C2=O)cc1` (centres undefined): the RP-LC retention time worked out at 1120 s.

`CC(C)c1nnc2n1CCN(C(=O)COc1cccc(Cl)c1)C2` had an RP-LC retention time of 667 s.

With `N#Cc1ccc(C(=O)Nc2cccnc2N2CCCC2)cc1`, the RP-LC retention time was found to be 583 s.

As to `CCCOc1ccc(C(=O)Nc2nnc(C3CC(=O)N(c4ccccc4)C3)o2)cc1` (centres undefined), the RP-LC retention time was found to be 800 s.

Take `CC(C)NC(=O)Cn1nc2c3cc(-c4ccc(Cl)cc4)nn3ccn2c1=O`: the RP-LC retention time came to 823 s.

In turn, `CC(C)C(=O)Nc1ccc(-n2cnc(C(=O)NCc3ccc(F)cc3F)c2)nc1` yielded an RP-LC retention time of 773 s.

The compound `CN(C)C(=O)c1ccc2c(c1)nnn2CCNC(=O)Nc1ccc(F)cc1` had an RP-LC retention time of 640 s.

For `CCOC(=O)c1nc(Nc2cccc(C)c2C)c2ccccc2n1`, the RP-LC retention time is 826 s.

The compound `COc1ccc2nc(C(=O)NCc3ccc(F)cc3Cl)cn2n1` showed an RP-LC retention time of 872 s.

`CCc1ccc(Nc2nc(C(=O)N3CCCCCC3)nc3ccccc23)cc1` displayed an RP-LC retention time of 910 s.

Regarding `O=C(Cc1cccs1)NC1CCN(c2nnc3ccc(Cl)cn23)CC1`, the RP-LC retention time was found to be 596 s.

In turn, `CCOC(=O)N1CCN(C(=O)C2CCCN(c3ccc(-c4ccc(C)c(C)c4)nn3)C2)CC1` (centres undefined) registered an RP-LC retention time of 715 s.

Regarding `CCc1ccc(-c2ccc(=O)n(Cc3nc(-c4cccs4)no3)n2)cc1`, the RP-LC retention time worked out at 1060 s.

Compound `Cc1cc(NC(=O)COc2cccc3c(=O)n(C)ccc23)no1` gave an RP-LC retention time of 660 s.

Compound `CCOC(=O)c1c(S(=O)(=O)N2CCC(C(=O)NCc3ccc(F)cc3)CC2)c(C)n(C)c1C` yielded an RP-LC retention time of 808 s.

As for `COc1ccc(CC(=O)NC(C)C(=O)Nc2nc3ccccc3[nH]2)c(Cl)c1` (centres undefined), the RP-LC retention time is 676 s.

`CC(C)NC(=O)N(CC(=O)N1CCc2sccc2C1COc1cccc(F)c1)CC1CCCO1` (centres undefined) registered an RP-LC retention time of 950 s.

Compound `COc1cc(NC(=O)CN2C(=O)COc3ccc(C(=O)N4CCCC4)cc32)cc(OC)c1` displayed an RP-LC retention time of 718 s.

`CCOc1ccc(-c2cn3ccn(-c4cc(C)c(Cl)cc4OC)c(=O)c3n2)cc1` returned an RP-LC retention time of 972 s.

Regarding `O=C1CC(C(=O)N2CCN(Cc3ccccc3)CC2)CN1CCc1ccccc1` (centres undefined), the RP-LC retention time worked out at 740 s.

`CCc1ccc(-n2nnc(C(=O)N3CCC4(CC3)OCCO4)c2-c2cccnc2)cc1` registered an RP-LC retention time of 783 s.

In turn, `COc1ccc(Cl)cc1NS(=O)(=O)c1cc2c(s1)CCN(C(=O)C1CC1)C2` showed an RP-LC retention time of 883 s.

In turn, `Cc1ccccc1Cc1nc(-c2ccnc(N3CCOCC3)c2)no1` returned an RP-LC retention time of 908 s.

For the compound `Cc1ccc(C2(O)C(=O)N(Cc3nc(-c4ccccc4)oc3C)c3ccccc32)cc1` (centres undefined), the RP-LC retention time amounted to 1110 s.

Consider `O=c1[nH]c(-c2cccc(O)c2)nc2sc3c(c12)CCCC3`, for which the RP-LC retention time was 830 s.

For the compound `CC1=CC(C)(C)N=C2SC(c3ccc(N)cc3)=NN12`, the RP-LC retention time amounted to 635 s.

`O=C(CCc1c(-c2ccc(Br)cc2)nc2ccccn12)NC1CC1` came in with an RP-LC retention time of 610 s.

As for `COc1ccc(OC)c(CNC(=O)c2[nH]c(C)c(S(=O)(=O)N3CCCC3)c2C)c1`, the RP-LC retention time was determined as 822 s.

In turn, `Cc1noc(C)c1S(=O)(=O)N(Cc1cccs1)Cc1cccn1C` yielded an RP-LC retention time of 1000 s.

For the compound `COc1ccc2cc(OCC3(C(=O)O)CN(C(=O)c4ccc(F)cc4)C3)ccc2c1`, the RP-LC retention time turned out to be 969 s.

`O=C(NCCn1nnc2cc(C(=O)N3CCCC3)ccc21)Nc1ccccc1Cl` yielded an RP-LC retention time of 892 s.

With `COc1ccc(NC(=O)N2CCN(c3cc(C)nc(N4CCCC4)n3)CC2)c(OC)c1`, the RP-LC retention time worked out at 646 s.

With `CC(C)(C)OC(=O)N1CCN(CCNC(=O)CSc2nc3ccccc3o2)CC1`, the RP-LC retention time is 595 s.

Compound `O=C(Cn1c(=O)c2cccn2c2ccccc21)NCCN1CCOCC1` registered an RP-LC retention time of 592 s.

On to `CC(C)=CCC/C(C)=C/CNCCNC1C2CC3CC(C2)CC1C3` (centres undefined), for which the RP-LC retention time is 624 s.

`COc1ccc(-c2noc(-c3ccc(NCC4CCCO4)nn3)n2)cc1` (centres undefined) gave an RP-LC retention time of 782 s.

Regarding `CCN1c2ccccc2C(=O)NC12CCN(C(=O)Nc1cc(Cl)ccc1OC)CC2`, the RP-LC retention time came to 787 s.

`O=C(Nc1ccc(N2CCN(C3CCCCC3)C2=O)nc1)c1cc(F)cc(F)c1` yielded an RP-LC retention time of 1020 s.

`O=C(CC(=O)Nc1ccccc1Cl)Nc1ccc2nc3n(c(=O)c2c1)CCCCC3` had an RP-LC retention time of 772 s.

Regarding `CCCn1cc(CCNC(=O)Nc2cccc(Cl)c2C)c2cccnc21`, the RP-LC retention time worked out at 889 s.

`CCOc1ccccc1-c1noc(Cn2cnc3c(cnn3-c3ccc(CC)cc3)c2=O)n1` displayed an RP-LC retention time of 1170 s.

`COCCN1C(=O)Cc2ccccc2C1C(=O)N1CCCCC1` (centres undefined) returned an RP-LC retention time of 725 s.

With `O=C(c1ccc(Br)o1)N1C[C@@H](CO)[C@H](c2ccncc2)C1`, the RP-LC retention time is 515 s.

As to `CCCn1cc(CCNC(=O)Nc2c(F)cccc2F)c2cccnc21`, the RP-LC retention time stood at 699 s.

Consider `Clc1ccc(CCCOCCCN2CCCCC2)cc1`, for which the RP-LC retention time amounted to 744 s.

`CCN1c2ccc(C)cc2C(=O)NC12CCN(C(=O)Cc1cccc(OC)c1)CC2` showed an RP-LC retention time of 802 s.

The compound `Clc1ccccc1CNc1nnc(-c2nc(C3CC3)no2)c2ccccc12` registered an RP-LC retention time of 1010 s.

On to `O=C(COc1ccc(Br)cc1)NCc1ccc2c(c1)OCCCO2`, for which the RP-LC retention time is 933 s.

`COC(=O)c1ncn2c1C(=O)N(c1cccc(C)c1C)C(C)(C(=O)NC1CCCC1)C2` (centres undefined) showed an RP-LC retention time of 734 s.

`Cc1ccc(-c2noc(C3CCCN3S(=O)(=O)c3c(C)cc(C)cc3C)n2)cc1` (centres undefined) gave an RP-LC retention time of 1330 s.

Take `O=c1n(Cc2cccc(Cl)c2)nc2ccc(S(=O)(=O)N3CCCC3)cn12`: the RP-LC retention time was found to be 919 s.

Regarding `CCS(=O)(=O)Nc1ccc2nc(N3CCN(c4cc(C)ccc4C)CC3)cc(C(=O)O)c2c1`, the RP-LC retention time worked out at 607 s.

As to `Cc1ccc(S(=O)(=O)N2CC[C@H](c3n[nH]c(C)n3)[C@H](N(C)C)C2)c(C)c1`, the RP-LC retention time was determined as 623 s.

`Cc1cccc(C)c1NC(=O)Cn1cnc2nc(N3CCC(C(=O)NC4CC4)CC3)sc2c1=O`: the RP-LC retention time was determined as 693 s.

Take `O=C1Nc2cc(C(=O)N3CCN(Cc4ccccc4)CC3)ccc2N2CCCCC12` (centres undefined): the RP-LC retention time is 612 s.

In turn, `O=C(NC1CCCC1)N1CCC(c2noc(-c3cccnc3)n2)C1` (centres undefined) displayed an RP-LC retention time of 701 s.

The compound `O=C(NC1CCCCC1)C1CCN(S(=O)(=O)c2ccc3[nH]c(=O)sc3c2)CC1` returned an RP-LC retention time of 765 s.

With `Cc1ccc(NC(=O)NCCc2cn(CC(C)C)c3ncccc23)cc1Cl`, the RP-LC retention time was 941 s.

In turn, `COc1ccccc1Cc1nc(C2CC(=O)N(c3ccc(F)c(Cl)c3)C2)no1` (centres undefined) registered an RP-LC retention time of 1020 s.

`Cn1c(=O)c2cc(C(=O)Nc3ccc4c(c3)OCCO4)cnc2n(-c2ccccc2)c1=O` gave an RP-LC retention time of 842 s.

As for `CCOc1ccc(CC(=O)N2CCC3(CC2)Nc2cc(OC)ccc2-n2cccc23)cc1OCC`, the RP-LC retention time was found to be 1030 s.

`CSc1cccc(NC(=O)c2cnc(-c3ccc(F)cc3)nc2-c2ccncc2)c1` displayed an RP-LC retention time of 973 s.

Compound `O=C(NCc1ccccn1)C1CCN(S(=O)(=O)c2cc(C(=O)N3CCCCCC3)cs2)CC1` yielded an RP-LC retention time of 638 s.

As for `O=C1CC(c2ccc(Cl)cc2)Cc2nc(N3CCN(c4ccccn4)CC3)ncc21` (centres undefined), the RP-LC retention time came to 752 s.

`Cc1nn(C)cc1CN1CC(F)(F)C[C@H]1c1nnc(-c2ccccc2)o1`: the RP-LC retention time turned out to be 784 s.

For `Cn1c(=O)c(N2CCC(C(=O)NCc3ccco3)CC2)nc2ccccc21`, the RP-LC retention time came to 774 s.

As for `CC1CCCCN1CCNS(=O)(=O)c1ccccc1-c1nc(-c2cccc(F)c2)no1` (centres undefined), the RP-LC retention time worked out at 746 s.

As for `Cc1nc(-c2csc(S(=O)(=O)N3CCN(c4ccccc4Cl)CC3)c2)sc1C`, the RP-LC retention time was found to be 1320 s.

Consider `Cc1cc(C(=O)Nc2nc(-c3ccccc3)c(-c3ccccc3)s2)no1`, for which the RP-LC retention time is 1180 s.

`COC(=O)c1nnn(-c2ccc(C(C)C)cc2)c1C(=O)OC` displayed an RP-LC retention time of 996 s.

`COc1ccc(NC(=O)N2CC(C)Oc3ccc(C)cc32)cc1OC` (centres undefined) came in with an RP-LC retention time of 921 s.

In turn, `COc1ccc(C2CCCN2C(=O)c2cc(C)on2)cc1` (centres undefined) yielded an RP-LC retention time of 786 s.

The compound `c1ccc2sc(N3CCN(Cc4ccc5c(c4)OCO5)CC3)nc2c1` came in with an RP-LC retention time of 731 s.

As for `CN(C1CCCCC1)S(=O)(=O)c1ccc(NC(=O)c2ccco2)cc1`, the RP-LC retention time was determined as 883 s.

For the compound `Cc1ccc(-c2cc(C(=O)NCCCN3CCc4ccccc4C3)c(C)[nH]2)cc1C`, the RP-LC retention time was found to be 751 s.

Regarding `Cc1ccc(CNC(=O)c2cccc3c2CCN3C(=O)c2ccc(F)cc2)o1`, the RP-LC retention time is 889 s.

The compound `O=C(Cn1c(-c2cccnc2)nc2ccccc21)Nc1ccc(OC(F)(F)F)cc1` returned an RP-LC retention time of 853 s.
